Source: patent US12459894B2, “Orally active melanocortin receptor-4 compounds” (Palatin Technologies, Inc., priority 2018, dated 2025)
Marks after values point to notes of the source that are not given here.

Tested on: C57BL/6 male DIO mice
Assay: Body weight and food intake in vivo study in diet induced obese (DIO) mice
Parameters: species or system mouse
Details: for Body Weight Change (%) Mean / Food Intake - 24 Hours (g) Mean: 1 mg/kg subcutaneous twice daily
Description: Compound 7.1 was assessed in a body weight and food intake in vivo study in diet induced obese (DIO) mice. C57BL/6 male DIO mice were utilized, that were 17 weeks of age on arrival. Animals were pre-conditioned on a high-fat diet for 11 weeks by Jackson Labs. […] Animals were single housed within a limited access rodent facility, and provided ad libitum with a commercial rodent diet and free access to drinking water. Animals were randomized into five groups, a vehicle group, three dose levels of compound 7.1 (3 mg/kg, 10 mg/kg and 30 mg/kg), and Peptide A, a positive control cyclic peptide of the formula Ac-Arg-cyclo(Om-Asn-D-Phe-Arg-Trp-Glu)-NH2. Following three days of sham dosing, animals were dosed for three days, with vehicle or Compound 7.1 dosed orally once daily at within one hour of lights out in the AM, and Peptide A dosed by subcutaneous injection twice daily within one hour before lights out and six hours after lights out. Body weights were measured one hour prior to lights out, and feed weights were measured both one hour prior to lights out and six hours post lights out.
• *p<0.05 vs. sham (vehicle control) using two-way ANOVA followed by Dunnett's post-test. • **p<0.01 vs sham (vehicle control) using two-way ANOVA followed by Dunnett's post-test.

Substance: Ac-Arg-cyclo(Om-Asn-D-Phe-Arg-Trp-Glu)-NH2 [Peptide A, reference compound]
- Body Weight Change (%) Mean (Day 0): 0%
- Food Intake - 24 Hours (g) Mean (Day 0, 24 hours post lights out): 0.99** g
- Body Weight Change (%) Mean (Day 1): −5.69** %
- Food Intake - 24 Hours (g) Mean (Day 1, 24 hours post lights out): 1.10** g
- Body Weight Change (%) Mean (Day 2): −8.37** %
- Food Intake - 24 Hours (g) Mean (Day 2, 24 hours post lights out): 1.67** g
- Body Weight Change (%) Mean (Day 3): −8.78** %
- feed intake (1 mg/kg, 24 hours post lights out, entirety of the study, vs sham): significantly inhibited feed intake
- body weight (two times daily 1 mg/kg, throughout the study): decreased animal body weights
